Columns and labels:
[1] = target: T1, Cannabinoid CB1 (Homo sapiens, UniProt P21554); test: biochemical; parameters: radioligand displacement binding panel of CNS receptors and transporters, single concentration; conditions: read-out: Inhibition (%)
T1 construct: gene CNR1
Text: (§1) Soticlestat (Supplementary Fig. S1) was discovered as a result of an iterative medicinal chemistry effort following high-throughput screening of an in vitro enzyme assay (Fig. 1A,B).

[2] = target: T2, Opiate μ (OP3, MOP) (Homo sapiens, UniProt P35372); test: biochemical; parameters: radioligand displacement binding panel of CNS receptors and transporters, single concentration; conditions: read-out: Inhibition (%)
T2 construct: gene OPRM1
T2 sequence (P35372 whole entry): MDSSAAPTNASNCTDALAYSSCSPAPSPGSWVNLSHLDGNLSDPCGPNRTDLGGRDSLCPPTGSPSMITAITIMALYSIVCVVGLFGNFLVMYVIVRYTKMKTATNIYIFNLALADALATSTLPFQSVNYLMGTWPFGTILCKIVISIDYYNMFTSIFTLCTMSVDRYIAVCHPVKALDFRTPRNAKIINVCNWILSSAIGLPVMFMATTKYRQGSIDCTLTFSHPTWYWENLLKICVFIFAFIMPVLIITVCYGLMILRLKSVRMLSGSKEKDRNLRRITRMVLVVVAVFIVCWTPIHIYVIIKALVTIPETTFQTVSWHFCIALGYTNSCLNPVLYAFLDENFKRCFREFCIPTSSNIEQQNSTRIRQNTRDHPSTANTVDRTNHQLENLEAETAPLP
Text: as §1

[3] = target: T3, Adenosine A2B (Homo sapiens, UniProt P29275); test: biochemical; parameters: radioligand displacement binding panel of CNS receptors and transporters, single concentration; conditions: read-out: Inhibition (%)
T3 construct: gene ADORA2B
T3 sequence (P29275 whole entry): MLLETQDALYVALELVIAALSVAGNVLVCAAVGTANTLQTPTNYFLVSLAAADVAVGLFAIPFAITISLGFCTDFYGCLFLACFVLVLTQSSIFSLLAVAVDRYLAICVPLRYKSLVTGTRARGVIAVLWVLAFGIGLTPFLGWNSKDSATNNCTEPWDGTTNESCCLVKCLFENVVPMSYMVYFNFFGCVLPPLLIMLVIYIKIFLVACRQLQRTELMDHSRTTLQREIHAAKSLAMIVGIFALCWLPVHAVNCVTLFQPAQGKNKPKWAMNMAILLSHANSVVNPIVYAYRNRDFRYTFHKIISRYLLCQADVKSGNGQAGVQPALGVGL
Text: as §1

[4] = target: T4, Vasopressin V1A (Homo sapiens, UniProt P37288); test: biochemical; parameters: radioligand displacement binding panel of CNS receptors and transporters, single concentration; conditions: read-out: Inhibition (%)
T4 construct: gene AVPR1A
T4 sequence (P37288 whole entry): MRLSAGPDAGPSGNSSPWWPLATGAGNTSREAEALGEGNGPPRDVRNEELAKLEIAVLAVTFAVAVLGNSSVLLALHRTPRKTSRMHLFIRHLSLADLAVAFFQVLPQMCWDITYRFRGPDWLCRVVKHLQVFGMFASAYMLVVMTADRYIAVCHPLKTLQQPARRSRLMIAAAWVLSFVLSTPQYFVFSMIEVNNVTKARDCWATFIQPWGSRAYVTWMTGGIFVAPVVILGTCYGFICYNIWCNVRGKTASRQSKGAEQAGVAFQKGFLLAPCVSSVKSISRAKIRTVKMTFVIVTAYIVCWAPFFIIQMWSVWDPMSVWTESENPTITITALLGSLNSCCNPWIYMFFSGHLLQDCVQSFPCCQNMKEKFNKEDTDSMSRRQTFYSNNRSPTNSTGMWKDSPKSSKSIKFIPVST
Text: as §1

[5] = target: T5, Dopamine D3 (Homo sapiens, UniProt P35462); test: biochemical; parameters: radioligand displacement binding panel of CNS receptors and transporters, single concentration; conditions: read-out: Inhibition (%)
T5 construct: gene DRD3
Text: as §1

[6] = target: T6, Dopamine D2L (Homo sapiens, UniProt P14416); test: biochemical; parameters: radioligand displacement binding panel of CNS receptors and transporters, single concentration; conditions: read-out: Inhibition (%)
T6 construct: gene DRD2; long isoform
T6 sequence (P14416 whole entry, canonical isoform): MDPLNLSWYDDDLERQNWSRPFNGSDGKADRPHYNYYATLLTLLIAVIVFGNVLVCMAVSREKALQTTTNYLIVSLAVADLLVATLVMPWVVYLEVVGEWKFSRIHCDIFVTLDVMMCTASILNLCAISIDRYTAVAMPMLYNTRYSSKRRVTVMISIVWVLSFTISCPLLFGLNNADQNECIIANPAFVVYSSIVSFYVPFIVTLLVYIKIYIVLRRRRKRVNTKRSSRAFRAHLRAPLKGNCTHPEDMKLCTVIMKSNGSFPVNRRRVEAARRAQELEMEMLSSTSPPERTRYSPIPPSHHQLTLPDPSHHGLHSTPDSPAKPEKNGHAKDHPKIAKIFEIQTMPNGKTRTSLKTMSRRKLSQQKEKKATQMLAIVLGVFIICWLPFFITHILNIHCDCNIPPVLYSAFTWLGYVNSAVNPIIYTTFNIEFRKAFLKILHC
Text: as §1

[7] = target: T7, GABA B1A (Homo sapiens, UniProt Q9UBS5); test: biochemical; parameters: radioligand displacement binding panel of CNS receptors and transporters, single concentration; conditions: read-out: Inhibition (%)
T7 construct: gene GABBR1; isoform 1A
Text: as §1

[8] = target: T8, Adrenergic β3 (Homo sapiens, UniProt P13945); test: biochemical; parameters: radioligand displacement binding panel of CNS receptors and transporters, single concentration; conditions: read-out: Inhibition (%)
T8 construct: gene ADRB3
T8 sequence (P13945 whole entry): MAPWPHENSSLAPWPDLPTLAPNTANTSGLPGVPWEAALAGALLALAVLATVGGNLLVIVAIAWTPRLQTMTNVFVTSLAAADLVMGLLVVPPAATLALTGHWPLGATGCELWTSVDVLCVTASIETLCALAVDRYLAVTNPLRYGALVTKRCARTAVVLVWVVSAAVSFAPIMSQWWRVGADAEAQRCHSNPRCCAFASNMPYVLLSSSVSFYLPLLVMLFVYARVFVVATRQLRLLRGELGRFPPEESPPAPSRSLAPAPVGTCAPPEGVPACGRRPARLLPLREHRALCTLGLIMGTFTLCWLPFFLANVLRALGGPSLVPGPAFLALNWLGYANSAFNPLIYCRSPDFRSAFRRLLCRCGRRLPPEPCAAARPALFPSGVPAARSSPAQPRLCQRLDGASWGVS
Text: as §1

[9] = target: T9, Adrenergic β2 (Homo sapiens, UniProt P07550); test: biochemical; parameters: radioligand displacement binding panel of CNS receptors and transporters, single concentration; conditions: read-out: Inhibition (%)
T9 construct: gene ADRB2
Text: as §1

[10] = target: T10, Muscarinic M3 (Homo sapiens, UniProt P20309); test: biochemical; parameters: radioligand displacement binding panel of CNS receptors and transporters, single concentration; conditions: read-out: Inhibition (%)
T10 construct: gene CHRM3
Text: as §1

[11] = target: T11, Angiotensin AT2 (Homo sapiens, UniProt P50052); test: biochemical; parameters: radioligand displacement binding panel of CNS receptors and transporters, single concentration; conditions: read-out: Inhibition (%)
T11 construct: gene AGTR2
Text: as §1

[12] = target: T12, Norepinephrine transporter (Homo sapiens, UniProt P23975); test: biochemical; parameters: radioligand displacement binding panel of CNS receptors and transporters, single concentration; conditions: read-out: Inhibition (%)
T12 construct: gene SLC6A2
Text: as §1

[13] = target: T13, Bradykinin B1 (Homo sapiens, UniProt P46663); test: biochemical; parameters: radioligand displacement binding panel of CNS receptors and transporters, single concentration; conditions: read-out: Inhibition (%)
T13 construct: gene BDKRB1
Text: as §1

[14] = target: T14, Muscarinic M2 (Homo sapiens, UniProt P08172); test: biochemical; parameters: radioligand displacement binding panel of CNS receptors and transporters, single concentration; conditions: read-out: Inhibition (%)
T14 construct: gene CHRM2
T14 sequence (P08172 whole entry): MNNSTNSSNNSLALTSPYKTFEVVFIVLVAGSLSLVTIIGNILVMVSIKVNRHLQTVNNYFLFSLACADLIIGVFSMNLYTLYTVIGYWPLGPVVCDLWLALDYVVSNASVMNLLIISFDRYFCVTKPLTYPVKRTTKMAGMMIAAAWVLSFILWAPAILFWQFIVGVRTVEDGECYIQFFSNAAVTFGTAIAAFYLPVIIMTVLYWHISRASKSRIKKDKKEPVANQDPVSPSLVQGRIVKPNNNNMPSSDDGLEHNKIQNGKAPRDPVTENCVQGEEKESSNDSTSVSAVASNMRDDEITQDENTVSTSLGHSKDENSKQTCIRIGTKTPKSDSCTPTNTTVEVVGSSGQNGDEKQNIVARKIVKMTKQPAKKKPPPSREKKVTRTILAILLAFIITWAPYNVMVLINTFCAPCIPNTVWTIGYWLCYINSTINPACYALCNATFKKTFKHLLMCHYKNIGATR
Text: as §1

[15] = target: T15, GABA B1B (Homo sapiens, UniProt Q9UBS5); test: biochemical; parameters: radioligand displacement binding panel of CNS receptors and transporters, single concentration; conditions: read-out: Inhibition (%)
T15 construct: gene GABBR1; isoform 1B
Text: as §1

[16] = target: T16, Muscarinic M1 (Homo sapiens, UniProt P11229); test: biochemical; parameters: radioligand displacement binding panel of CNS receptors and transporters, single concentration; conditions: read-out: Inhibition (%)
T16 construct: gene CHRM1
T16 sequence (P11229 whole entry): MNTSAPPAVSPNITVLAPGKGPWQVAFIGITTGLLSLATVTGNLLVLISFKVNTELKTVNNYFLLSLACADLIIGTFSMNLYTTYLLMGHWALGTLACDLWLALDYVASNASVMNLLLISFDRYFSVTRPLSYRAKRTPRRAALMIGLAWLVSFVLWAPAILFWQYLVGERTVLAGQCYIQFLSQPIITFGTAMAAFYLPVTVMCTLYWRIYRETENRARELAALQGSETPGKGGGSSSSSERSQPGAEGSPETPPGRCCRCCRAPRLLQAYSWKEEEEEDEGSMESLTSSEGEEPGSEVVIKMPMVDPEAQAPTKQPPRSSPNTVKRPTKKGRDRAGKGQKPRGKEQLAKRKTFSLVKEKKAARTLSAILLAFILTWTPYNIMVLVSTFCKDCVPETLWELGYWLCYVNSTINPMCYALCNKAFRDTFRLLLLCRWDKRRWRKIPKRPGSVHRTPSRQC
Text: as §1

[17] = target: T17, Opiate κ (OP2, KOP) (Homo sapiens, UniProt P41145); test: biochemical; parameters: radioligand displacement binding panel of CNS receptors and transporters, single concentration; conditions: read-out: Inhibition (%)
T17 construct: gene OPRK1
T17 sequence (P41145 whole entry): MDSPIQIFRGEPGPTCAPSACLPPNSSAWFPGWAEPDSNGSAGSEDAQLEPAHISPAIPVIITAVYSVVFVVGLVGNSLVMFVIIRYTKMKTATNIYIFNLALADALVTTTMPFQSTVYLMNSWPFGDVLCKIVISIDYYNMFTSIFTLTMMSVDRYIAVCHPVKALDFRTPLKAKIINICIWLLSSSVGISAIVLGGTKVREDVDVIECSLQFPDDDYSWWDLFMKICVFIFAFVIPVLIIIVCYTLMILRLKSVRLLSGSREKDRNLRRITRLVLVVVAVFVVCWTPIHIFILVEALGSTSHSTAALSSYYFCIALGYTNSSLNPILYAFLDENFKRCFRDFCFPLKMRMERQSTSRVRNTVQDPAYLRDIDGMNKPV
Text: as §1

[18] = target: T18, Histamine H2 (Homo sapiens, UniProt P25021); test: biochemical; parameters: radioligand displacement binding panel of CNS receptors and transporters, single concentration; conditions: read-out: Inhibition (%)
T18 construct: gene HRH2
Text: as §1

[19] = target: T19, Histamine H1 (Homo sapiens, UniProt P35367); test: biochemical; parameters: radioligand displacement binding panel of CNS receptors and transporters, single concentration; conditions: read-out: Inhibition (%)
T19 construct: gene HRH1
Text: as §1

[20] = target: T20, Dopamine D4.2 (Homo sapiens, UniProt P21917); test: biochemical; parameters: radioligand displacement binding panel of CNS receptors and transporters, single concentration; conditions: read-out: Inhibition (%)
T20 construct: gene DRD4; D4.2 repeat variant
Text: as §1

[21] = target: T21, Dopamine transporter (Homo sapiens, UniProt Q01959); test: biochemical; parameters: radioligand displacement binding panel of CNS receptors and transporters, single concentration; conditions: read-out: Inhibition (%)
T21 construct: gene SLC6A3
Text: as §1

[22] = target: T22, Adrenergic β1 (Homo sapiens, UniProt P08588); test: biochemical; parameters: radioligand displacement binding panel of CNS receptors and transporters, single concentration; conditions: read-out: Inhibition (%)
T22 construct: gene ADRB1
Text: as §1

[23] = target: T23, Serotonin transporter (Homo sapiens, UniProt P31645); test: biochemical; parameters: radioligand displacement binding panel of CNS receptors and transporters, single concentration; conditions: read-out: Inhibition (%)
T23 construct: gene SLC6A4
Text: as §1

[24] = target: T24, 5-HT2B (Homo sapiens, UniProt P41595); test: biochemical; parameters: radioligand displacement binding panel of CNS receptors and transporters, single concentration; conditions: read-out: Inhibition (%)
T24 construct: gene HTR2B
T24 sequence (P41595 whole entry): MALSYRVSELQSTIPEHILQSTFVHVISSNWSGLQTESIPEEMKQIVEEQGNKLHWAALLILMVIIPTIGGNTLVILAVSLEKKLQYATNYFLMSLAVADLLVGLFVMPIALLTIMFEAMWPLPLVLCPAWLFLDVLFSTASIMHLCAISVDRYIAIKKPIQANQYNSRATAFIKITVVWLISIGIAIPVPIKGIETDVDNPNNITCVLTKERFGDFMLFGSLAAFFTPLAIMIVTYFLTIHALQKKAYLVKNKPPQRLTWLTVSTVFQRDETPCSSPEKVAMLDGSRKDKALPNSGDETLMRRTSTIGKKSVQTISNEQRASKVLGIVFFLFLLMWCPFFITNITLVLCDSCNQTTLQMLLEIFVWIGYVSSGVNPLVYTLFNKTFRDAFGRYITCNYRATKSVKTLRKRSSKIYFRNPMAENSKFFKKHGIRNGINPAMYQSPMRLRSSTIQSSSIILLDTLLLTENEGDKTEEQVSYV
Text: as §1

[25] = target: T25, Dopamine D1 (Homo sapiens, UniProt P21728); test: biochemical; parameters: radioligand displacement binding panel of CNS receptors and transporters, single concentration; conditions: read-out: Inhibition (%)
T25 construct: gene DRD1
Text: as §1

[26] = target: cholesterol 24-hydroxylase (CH24H, CYP46A1) (Homo sapiens, UniProt Q9Y6A2); test: […]cholesterol 24-hydroxylation assay by TLC with lysate of CH24H-expressing cells; type: biochemical
cholesterol 24-hydroxylase (CH24H, CYP46A1), sequence (Q9Y6A2 whole entry): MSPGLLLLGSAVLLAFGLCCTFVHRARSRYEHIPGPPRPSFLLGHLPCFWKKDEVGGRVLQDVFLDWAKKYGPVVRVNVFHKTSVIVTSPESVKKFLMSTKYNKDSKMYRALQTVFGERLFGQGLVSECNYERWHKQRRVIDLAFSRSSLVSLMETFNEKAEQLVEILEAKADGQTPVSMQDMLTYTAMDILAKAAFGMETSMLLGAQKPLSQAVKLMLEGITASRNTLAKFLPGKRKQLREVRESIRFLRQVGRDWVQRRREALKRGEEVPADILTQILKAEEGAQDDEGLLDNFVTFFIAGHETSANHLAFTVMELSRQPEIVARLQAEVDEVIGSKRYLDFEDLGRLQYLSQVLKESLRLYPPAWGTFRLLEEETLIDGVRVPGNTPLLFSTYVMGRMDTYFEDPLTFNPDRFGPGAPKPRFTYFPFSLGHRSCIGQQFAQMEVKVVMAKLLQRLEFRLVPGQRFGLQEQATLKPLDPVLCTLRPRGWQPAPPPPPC

[27] = target: T26, Cyclooxygenase (COX-1) (Homo sapiens, UniProt P23219); test: biochemical; parameters: enzyme inhibition panel, single concentration; conditions: read-out: Inhibition (%)
T26 construct: gene PTGS1
Text: as §1

[28] = target: T27, MAO B (Homo sapiens, UniProt P27338); test: biochemical; parameters: enzyme inhibition panel, single concentration; conditions: read-out: Inhibition (%)
T27 construct: gene MAOB
Text: as §1

[29] = target: T28, Cholinesterase, Acetyl, ACES (Homo sapiens, UniProt P22303); test: biochemical; parameters: enzyme inhibition panel, single concentration; conditions: read-out: Inhibition (%)
T28 construct: gene ACHE
Text: as §1

[30] = target: T29, Peptidase, Metalloproteinase, Neutral Endopeptidase (Homo sapiens, UniProt P08473); test: biochemical; parameters: enzyme inhibition panel, single concentration; conditions: read-out: Inhibition (%)
T29 construct: gene MME
Text: as §1

[31] = target: T30, Cyclooxygenase (COX-2) (Homo sapiens, UniProt P35354); test: biochemical; parameters: enzyme inhibition panel, single concentration; conditions: read-out: Inhibition (%)
T30 construct: gene PTGS2
T30 sequence (P35354 whole entry): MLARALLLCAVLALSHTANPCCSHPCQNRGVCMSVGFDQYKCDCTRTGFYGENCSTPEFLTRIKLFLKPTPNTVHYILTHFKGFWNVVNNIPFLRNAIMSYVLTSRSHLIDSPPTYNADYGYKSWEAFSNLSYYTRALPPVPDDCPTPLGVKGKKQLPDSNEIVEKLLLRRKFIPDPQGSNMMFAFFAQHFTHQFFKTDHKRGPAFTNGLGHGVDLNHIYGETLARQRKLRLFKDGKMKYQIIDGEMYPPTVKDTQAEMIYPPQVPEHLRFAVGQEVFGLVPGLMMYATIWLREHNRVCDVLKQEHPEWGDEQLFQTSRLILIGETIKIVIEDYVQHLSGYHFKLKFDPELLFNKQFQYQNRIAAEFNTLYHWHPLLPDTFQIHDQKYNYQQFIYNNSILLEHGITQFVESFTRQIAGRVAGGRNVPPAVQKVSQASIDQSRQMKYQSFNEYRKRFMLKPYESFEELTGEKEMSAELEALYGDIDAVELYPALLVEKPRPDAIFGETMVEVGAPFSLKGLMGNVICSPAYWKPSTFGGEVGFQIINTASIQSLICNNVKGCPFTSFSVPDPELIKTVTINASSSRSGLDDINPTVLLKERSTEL
Text: as §1

[32] = target: T31, Phosphodiesterase 5 (Homo sapiens, UniProt O76074); test: biochemical; parameters: enzyme inhibition panel, single concentration; conditions: read-out: Inhibition (%)
T31 construct: gene PDE5A
Text: as §1

[33] = target: T32, MAO A (Homo sapiens, UniProt P21397); test: biochemical; parameters: enzyme inhibition panel, single concentration; conditions: read-out: Inhibition (%)
T32 construct: gene MAOA
Text: as §1

Q: What does the source list for O=C(c1cccnc1-c1ccncc1)N1CCC(O)(Cc2ccccc2)CC1 [soticlestat, (4-benzyl-4-hydroxypiperidin-1-yl)(2,4′-bipyridin-3-yl) methanone]?
A: inhibition at 10 µM [1]: -5%; inhibition at 10 µM [2]: -1%; inhibition at 10 µM [3]: 20%; inhibition at 10 µM [4]: -11%; inhibition at 10 µM [5]: 5%; inhibition at 10 µM [6]: 15%; inhibition at 10 µM [7]: 6%; inhibition at 10 µM [8]: -7%; inhibition at 10 µM [9]: 6%; inhibition at 10 µM [10]: 12%; inhibition at 10 µM [11]: -10%; inhibition at 10 µM [12]: -1%; inhibition at 10 µM [13]: 13%; inhibition at 10 µM [14]: 1%; inhibition at 10 µM [15]: 8%; inhibition at 10 µM [16]: 7%; inhibition at 10 µM [17]: -1%; inhibition at 10 µM [18]: 5%; inhibition at 10 µM [19]: -2%; inhibition at 10 µM [20]: 0%; inhibition at 10 µM [21]: 0%; inhibition at 10 µM [22]: -4%; inhibition at 10 µM [23]: 6%; inhibition at 10 µM [24]: 5%; inhibition at 10 µM [25]: 5%; IC50 [26]: 4.5 nM; inhibition at 10 µM [27]: -14%; inhibition at 10 µM [28]: 0%; inhibition at 10 µM [29]: 0%; inhibition at 10 µM [30]: -4%; inhibition at 10 µM [31]: 4%; inhibition at 10 µM [32]: -2%; inhibition at 10 µM [33]: 1%
